The values below come from ChEMBL document CHEMBL3853353, “Identification and optimization of a new series of anti-tubercular quinazolinones” (Bioorg Med Chem Lett, 2016).

Data set [1] concerns Mycobacterium tuberculosis. The data set can be described thus: Antimycobacterial activity against Mycobacterium tuberculosis H37Rv incubated for 5 days in presence of 25% human serum by Bactiter-Glo assay. The format is functional. The following applies: 120 h.
Data set [2] concerns Mycobacterium tuberculosis. The data set can be described thus: Antimycobacterial activity against GFP-tagged Mycobacterium tuberculosis H37Rv infected in mouse RAW264.7 cells incubated for 4 days by Mask blue/Hoechst/FITC staining based fluorescence microscopic analysis. Type of data set: functional. Conditions: 96 h.
Data set [3] in a line: Lipophilicity, log P of compound. Conditions: octanol/water.
Data set [4] relates to Mycobacterium tuberculosis. The data set can be described thus: Antimycobacterial activity against Mycobacterium tuberculosis H37Rv incubated for 5 days by Bactiter-Glo assay. The format is functional. The following applies: 120 h.
The subject of data set [5] is Mycobacterium tuberculosis. The data set can be described thus: Ratio of MIC80 for Mycobacterium tuberculosis H37Rv in presence of 25% human serum to MIC80 for Mycobacterium tuberculosis H37Rv. Type of data set: functional.
A short description of data set [6]: Cytotoxicity against human HepG2 cells assessed as reduction in cell viability after 40 hrs by Celltiter-Glo assay. A general note: ATP-based viability assays read luminescence as a measure of living cells.
The target in data set [7] is T1, Cytochrome P450 3A4 (Homo sapiens, UniProt P08684). The data set can be described thus: Inhibition of CYP3A4 in human liver microsomes assessed as 1'-hydroxymidazolam metabolite formation using midazolam as substrate incubated for 10 mins by HPLC-MS method. (Liver microsomes are a subcellular fraction often used to study metabolism.)
A short description of data set [8]: Permeability in human Caco2 cells. Conditions: caco-2. For orientation: Caco-2 cells form a polarised layer with tight junctions and transporters.
A short description of data set [9]: Aqueous equilibrium solubility of compound in pH 7.4 solution at 20 degC. Conditions: aqueous pH 7.4 solution.
A short description of data set [10]: Aqueous equilibrium solubility of compound in pH 1 solution at 20 degC. The following applies: aqueous pH 1 solution.
For data set [11], the target named is T1, Cytochrome P450 3A4. The data set can be described thus: Inhibition of CYP3A4 in human liver microsomes assessed as 6-beta-hydroxytestosterone metabolite formation using testosterone as substrate incubated for 30 mins by HPLC-MS method.

pIC50: −log10 of the molar value. ≈ marks a conversion by molar mass, not a printed value.

T1 sequence (P08684 whole entry): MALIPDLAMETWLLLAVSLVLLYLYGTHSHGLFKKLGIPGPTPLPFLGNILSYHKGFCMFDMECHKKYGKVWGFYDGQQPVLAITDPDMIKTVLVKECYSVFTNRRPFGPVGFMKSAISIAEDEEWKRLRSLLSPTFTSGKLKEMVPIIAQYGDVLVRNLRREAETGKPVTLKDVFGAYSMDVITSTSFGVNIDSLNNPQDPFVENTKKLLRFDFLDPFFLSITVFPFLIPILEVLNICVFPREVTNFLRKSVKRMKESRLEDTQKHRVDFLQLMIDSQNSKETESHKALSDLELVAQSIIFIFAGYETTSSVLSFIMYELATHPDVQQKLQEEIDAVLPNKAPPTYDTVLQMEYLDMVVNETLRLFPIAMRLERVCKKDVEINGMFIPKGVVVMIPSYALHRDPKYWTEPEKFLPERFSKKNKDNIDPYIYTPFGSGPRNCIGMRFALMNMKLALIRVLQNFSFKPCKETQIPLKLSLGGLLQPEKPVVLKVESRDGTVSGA

`Cn1c(NCCc2ccc(-c3ccc(F)cc3)cn2)nc2cc(Cl)ccc2c1=O`: the figures for the MIC80 in data set [1], in data set [2] and in data set [4] were 4.02 µM, 0.201 µM (≈ 0.0822 µg/mL) and 0.06 µM (≈ 0.0245 µg/mL), respectively. Further, the logP in data set [3] stood at 4.23. The Ratio in data set [5] is reported as 8. The IC50 at 40 h in data set [6] (HepG2 cells) is 0.057 µM.

For the compound `Cn1c(NCCc2ccc(-n3cc(Cl)cn3)cc2)nc2cc(Cl)ccc2c1=O`, the pIC50 on Cytochrome P450 3A4 [7] is 4.80. Also, the MIC80 was 0.86 µM in data set [1] and 0.01 µM (≈ 0.00414 µg/mL) in data set [4]. In data set [8], the permeability entry is reported as “Permeable”. The thermodynamic solubility in data set [9] and in data set [10] was less than 1 µg/mL in each case. This compound also yielded a log partition coefficient (logP) in data set [3] of 4.67. For the same compound, in data set [5], the Ratio came out at 8. The IC50 at 40 h in [6] (HepG2 cells) came out at 21.6 µM.

Turning to `Cn1c(NCCc2ccccc2)nc2cc(Cl)ccc2c1=O`, the values for the pIC50 at Cytochrome P450 3A4 [7] and at Cytochrome P450 3A4 [11] were 4.96 and 4.74, respectively. The results for the MIC80 in data set [1] and in data set [4] were 2.79 µM and 0.06 µM (≈ 0.0188 µg/mL), respectively. The permeability entry in [8] was “Permeable”. Moreover, the solubility (thermodynamic) is less than 1 µg/mL in data set [9] and 180 µg/mL (≈ 574 µM) in data set [10]. In [3], this compound returned a logP of 4.24. Besides, in data set [5], the Ratio was determined as 8. Moreover, the IC50 at 40 h in data set [6] (HepG2 cells) turned out to be 15.2 µM.

In data set [4], `COc1ccc(CCCNc2nc3cc(Cl)ccc3c(=O)n2C)cc1` returned an MIC80 of 5.8 µM (≈ 2.08 µg/mL). Also, the Ratio in data set [5] is listed as greater than 10. The IC50 at 40 h in data set [6] (HepG2 cells) stood at 16.8 µM.

As to `Cn1c(NCCc2ccc(Oc3ccc(Cl)cn3)cc2)nc2cc(Cl)ccc2c1=O`, the figures for the MIC80 in data set [1] and in [4] were 1.76 µM and 0.02 µM (≈ 0.00883 µg/mL), respectively. For the same compound, the IC50 at 40 h in [6] (hepg2) amounted to 13 µM.

In the case of `COc1ccc(CCNc2nc3cc(Cl)c(F)cc3c(=O)n2C)cc1`, the MIC80 in [4] turned out to be 0.03 µM (≈ 0.0109 µg/mL). In addition, the Ratio in [5] is greater than 10. Also, the IC50 at 40 h in [6] (HepG2 cells) is greater than 30 µM.

Turning to `COc1ccc(-c2ccc(CCNc3nc4cc(Cl)ccc4c(=O)n3C)nc2)cn1`, the values for the MIC80 in data set [1] and in data set [4] were greater than 15 µM and 0.31 µM (≈ 0.131 µg/mL), respectively. Further, in data set [5], the Ratio worked out at 8. Further, the IC50 at 40 h in data set [6] (HepG2 cells) turned out to be 24.1 µM.

Regarding `COc1cnc(-c2ccc(CCNc3nc4cc(Cl)ccc4c(=O)n3C)cc2)nc1`, the MIC80 came to 3.52 µM in data set [1], 0.081 µM (≈ 0.0342 µg/mL) in [2] and 0.016 µM (≈ 0.00675 µg/mL) in data set [4]. Besides, the IC50 at 40 h in data set [6] (hepg2) was greater than 30 µM.

With `COc1ccc(-c2ccc(CCNc3nc4cc(Cl)ccc4c(=O)n3C)cc2)nc1`, the logP in data set [3] came out at 4.67. For the same compound, the MIC80 in [4] worked out at 0.06 µM (≈ 0.0253 µg/mL). In [5], the Ratio is 8. In addition, the IC50 at 40 h in [6] (HepG2 cells) was determined as 11.9 µM.

As for `COc1ccc(CCNc2nc3ccccc3c(=O)n2C)cc1`, the MIC80 in [4] came out at 0.24 µM (≈ 0.0742 µg/mL). In data set [5], the Ratio is recorded as greater than 10. Moreover, the IC50 at 40 h in data set [6] (HepG2 cells) is greater than 30 µM.

In the case of `COc1ccc(NCc2nc3cc(Cl)ccc3c(=O)n2C)cc1`, in data set [4], the MIC80 amounted to 19.9 µM (≈ 6.56 µg/mL). Moreover, in data set [5], the Ratio is given as greater than 10. In addition, the IC50 at 40 h in data set [6] (HepG2 cells) is 15.7 µM.

In the case of `Cn1c(NCCc2ccc(-c3ccccn3)cc2)nc2cc(Cl)ccc2c1=O`, the MIC80 in [1] was found to be 25.2 µM; in [4], 0.027 µM (≈ 0.0106 µg/mL). The IC50 at 40 h in [6] (hepg2) was found to be 16.5 µM.

Consider `Cn1c(NCCc2ccc(-c3ncccn3)cc2)nc2cc(Cl)ccc2c1=O`, for which the MIC80 in [1] was 4.06 µM; in data set [4] it was 0.079 µM (≈ 0.031 µg/mL). Further, in data set [6] (hepg2), the IC50 at 40 h amounted to 25.4 µM.

Take `Cn1c(NCCc2ccc(-c3ccc(Cl)cc3)nn2)nc2cc(Cl)ccc2c1=O`: the MIC80 came out at 3.32 µM in [1] and 0.03 µM (≈ 0.0128 µg/mL) in data set [4]. Moreover, the logP in data set [3] was determined as 4.67. Moreover, in data set [5], the Ratio was found to be 8. In addition, in data set [6] (HepG2 cells), the IC50 at 40 h was greater than 30 µM.

For `Cn1c(NCCc2ccc(-c3ccc(F)cn3)cc2)nc2cc(Cl)ccc2c1=O`, the MIC80 in [1] amounted to 3.14 µM; in data set [2], 0.051 µM (≈ 0.0209 µg/mL); in [4] it was 0.015 µM (≈ 0.00613 µg/mL). The IC50 at 40 h in data set [6] (hepg2) worked out at 19 µM.

In data set [3], `COc1ccc(-c2ccc(CCNc3nc4cc(Cl)ccc4c(=O)n3C)nc2)cc1` yielded a logP of 4.03. In [4], the MIC80 was determined as 0.32 µM (≈ 0.135 µg/mL). Moreover, the Ratio in [5] was determined as 8. The IC50 at 40 h in [6] (HepG2 cells) was 14.7 µM.

As to `COc1ccc(CCNc2nc3ccc(Cl)cc3c(=O)n2C)cc1`, the MIC80 in [4] amounted to 0.9 µM (≈ 0.309 µg/mL). In [5], the Ratio is given as greater than 10. The IC50 at 40 h in [6] (HepG2 cells) worked out at 26.1 µM.

As for `Cn1c(NCCc2ccc(-c3ccccc3)cn2)nc2cc(Cl)ccc2c1=O`, the MIC80 in data set [4] worked out at 0.004 µM (≈ 0.00156 µg/mL). Besides, in data set [5], the Ratio is given as 8. In [6] (HepG2 cells), the IC50 at 40 h is 18.3 µM.

As to `COCCOc1ccc(CCNc2nc3cc(Cl)ccc3c(=O)n2C)cc1`, the results for the MIC80 in [1] and in data set [4] were greater than 10 µM and 0.08 µM (≈ 0.031 µg/mL), respectively. Moreover, in data set [3], the logP came to 3.86. For the same compound, the Ratio in [5] stood at 8. Further, in data set [6] (HepG2 cells), the IC50 at 40 h was greater than 30 µM.

One may read the MIC80 as an inhibitory concentration at the 80% level, which refers to growth in some studies and to a panel of isolates in others. By logP is commonly meant a log measure of how a compound divides between an organic and an aqueous phase. A high value points to higher lipophilicity. What is called IC50 is the concentration needed to halve the response being measured. Broadly, the pIC50 is the IC50 on a negative log10 scale, so that one unit is a factor of ten. One may read the solubility (thermodynamic) as the concentration in solution at equilibrium with solid.
